Measured values from patent US11179379B2, “Compositions and methods for hemoglobin production” (THE CHILDREN'S HOSPITAL OF PHILADELPHIA, priority 2017, dated 2021).

Tested on: eIF2αK1
Assay: not given
Details: literature reports; cited from earlier work
For `O=c1c(O)c(-c2ccc(O)c(O)c2)oc2cc(O)cc(O)c12` [Quercetin], the “inhibition of eIF2αK1 activity” value is given as “ATP-competitive kinase inhibitor of eIF2αK1”.
For `C=CC1=C(C)c2cc3[n-]c(cc4[n-]c(cc5nc(cc1n2)C(C)=C5C=C)c(C)c4CCC(=O)O)c(CCC(=O)O)c3C.[Cl-].[Fe+3]` [Fe(III)-hemin], the “inhibition of eIF2αK1 activity” value is given as “inhibit eIF2αK1 activity”.
For `C=CC1=C(C)c2cc3[n-]c(cc4[n-]c(cc5nc(cc1n2)C(C)=C5C=C)c(C)c4CCC(=O)O)c(CCC(=O)O)c3C.[Fe+2]` [Fe(II)-heme], the “inhibition of eIF2αK1 activity” value is listed as “inhibit eIF2αK1 activity”.
In the case of uroporphyrin, the “inhibition of eIF2αK1 activity” value is listed as “inhibit eIF2αK1 activity”.
For `C=CC1=C(C)/C(=C/C2=NC(=C\c3[nH]c(/C=C4\NC(=O)C(C)=C4C=C)c(C)c3CCC(=O)O)/C(CCC(=O)O)=C2C)NC1=O` [biliverdin], the “inhibition of eIF2αK1 activity” value is given as “inhibit eIF2αK1 activity”.

Tested on: HUDEP-2 expressing Cas9 cells
Assay: Combination of eIF2αK1 gRNA and pomalidomide, HbF positive cells
Assay type: cell-based, human
Details: pomalidomide in combination with eIF2αK1 inhibition (eIF2αK1 gRNA #3 or #5); three independent experiments
Description: FIG. 3 is a graph of the percentage of cells positive for HbF expression. HUDEP-2 expressing Cas9 cells were transduced with eIF2αK1 sgRNA #3, eIF2αK1 sgRNA #5, a gRNA targeting BCL11A exon 2, or a negative control gRNA. Cells were then incubated with or without pomalidomide. n=3.
Combination experiments with the immunomodulatory pomalidomide, which is an HbF inducer, were also performed. If eIF2αK1 inhibition works at least in part by altering protein translation, additive effects may be observed when using compounds that predominantly affect transcription of fetal globin genes. Briefly, HUDEP-2 expressing Cas9 cells were transduced with eIF2αK1 gRNA #3, eIF2αK1 gRNA #5, a gRNA targeting BCL11A exon 2, or a negative control gRNA. The cells were then incubated with or without pomalidomide. […] Indeed, the results with pomalidomide in combination with eIF2αK1 inhibition were very strong in three independent experiments, even stronger than those observed with Bcl11A inhibition and pomalidomide.
In the case of `Nc1cccc2c1C(=O)N(C1CCC(=O)NC1=O)C2=O` (stereo not drawn) [pomalidomide], the “number of HbF positive cells” value is reported as “greatly increased”.
